The test system of the assay is mouse T lymphocytes. Description: T-cell proliferation assay (ionomycin plus PMA induced T-cell stimulation, tritiated thymidine uptake). The settings on record: T-lymphocyte, standard at 10 ng/ml. The assay is classed as cell-based. As to the method:
The principle of this assay is to measure the proliferation of mouse T lymphocytes stimulated with the combination of ionomycin plus PMA. A positive sample in this assay will inhibit T-cell proliferation, as indicated by reduced tritiated thymidine uptake.
Purified L-683,756, as prepared by HPLC above, was dissolved in absolute ethanol at 1 mg/ml.
Spleens from C57B1/6 mice were taken under sterile conditions and gently dissociated in ice-cold RPMI 1640 culture medium (GIBCO, Grand Island, N.Y.) supplemented with 10% heat-inactivated fetal calf serum (GIBCO). Cells were pelleted by centrifugation at 1500 rpm for 8 minutes. […]
Purified T lymphocytes were resuspended at 2.5 x 10⁵ cells/ml in complete culture medium composed of RPMI 1640 medium with 10% heat-inactivated fetal calf serum, […] glutamine, 1 mM sodium pyruvate, 2 x 10⁻⁵ M 2-mercaptoethanol and 50 µg/ml gentamycin. […] The proliferation of T lymphocytes was assessed by measurement of tritiated thymidine incorporation. […] Radioactivity of filter discs corresponding to individual wells was measured by standard liquid scintillation counting methods (Betacounter). Mean counts per minute of replicate wells were calculated and the results expressed as percent inhibition of tritiated thymidine uptake (proliferation) as follows: [formula]

As for `CC[C@@H]1/C=C(\C)C[C@H](C)C[C@H](OC)[C@H]2O[C@@](O)(C(=O)C(=O)N3CCCC[C@H]3C(=O)O[C@H](/C(C)=C/[C@@H]3CC[C@@H](O)[C@H](OC)C3)[C@H](C)[C@@H](O)CC1=O)[C@H](C)C[C@@H]2OC` [L-683,590], the inhibition at 0.01 µg/mL came out at 99%.

As a reminder, the inhibition is the relative decrease from the control value, in per cent.
